The values below come from PMC4792161, “A novel pyrazole derivative protects from ovariectomy-induced osteoporosis through the inhibition of NADPH oxidase” (Scientific Reports, 2016).

Marks after values point to notes of the source that are not given here.

The nature of data set [1]: Direct ROS (H2O2) scavenging in vitro. As to conditions: 1 mM NAC, 1 mM H2O2, control scavenger. An excerpt:
Based on the notion that the differentiation of OCs is mediated by Nox1/2/4-dependent ROS generation, we have performed a high throughput enzyme inhibitor screening assay to identify chemical compounds having Nox1/2/4 inhibitory activity for the development of an anti-osteoporosis agent. Purified Drosophila membranes expressing human Nox1, Nox2, or Nox4 were used to monitor ROS production by determining the oxidation of lucigenin, evident as chemiluminescence, in the absence or presence of chemical compound[18]. A chemical library containing 31,000 compounds was screened to identify Nox inhibitors. […] (Fig. 1B, Supplementary Fig. S2). […] Moreover, we investigated whether Ewha-18278 can directly scavenge ROS in vitro.
Supplementary Figure S3. (A) Ewha-18278 compounds can not directly scavenge superoxide or other reactive species in vitro. ROS (H2O2) measured with lucigenin. Reaction mixtures contained 1 […]
Luminescence measured over 30 min at 37
°C with luminometor (Gloma X luminometor, Turner BioSystem). […]
the phagocytosis of zymosan. […]
incubated with FITC-zymosan particles, and internalized fluorescence was measured by flow cytometry. The data are presented as the MFI of internalized FITC. Data represent mean ± S.D. […]

For the next data set, the system named is bone density. Also on record: method as in PMID 16754727. As to conditions: estrogen replacement; cited from earlier work.
In data set [2] the test system is OVX-induced osteoporotic ddY mice. The data set can be described thus: Tibia weights (wet, dry, ash) in OVX mice. As to conditions: 2.5 mg/kg oral once daily 28 days. The class given is in vivo. The method, then: (§1) The right sides of femur and tibia were weighed and then dried at 120 °C for 8 hours. The dried bones were carbonized at 800 °C for 6 hours in a furnace (Daihan Scientific, Korea) to detect ash absolute weights, after measurement of BMD and failure load. To reduce the individual body weight differences, the relative weight (%) was calculated using body weight at sacrifice and absolute weight as [Relative bone weights = (Absolute bone weight/Body weight at sacrifice) ×100]. In addition, ashed bones were ground and dissolved in nitric acid. In diluted solution, Ca and P contents were calculated (mg/g bone) using an orthocresolphthalein complex and enzyme methods, respectively. The Ca/P ratio (%) was calculated as (Tibia Ca contents/Tibia P contents) ×100.
Supplementary Table S4. Tibia Weights in OVX Mice Values are expressed mean ± S.D. of eight mice Risedronate sodium was administered at 2.5mg/kg levels a p<0.01 as compared with sham control […]
material OVX = ovariectomy
Groups Tibia absolute weights (g) Tibia relative weights (% of body weight)Wet Dry Ash Wet Dry Ash

The test system is the same in data set [3]. As to the kind of experiment: Femur weights (wet, dry, ash) in OVX mice. The data set is classed as in vivo. As to conditions: 2.5 mg/kg oral once daily 28 days. The method, then: as §1
Data set [4] in a line: Body weight changes in OVX mice. The data set is classed as in vivo, ddY mice. As to conditions: risedronate 2.5 mg/kg; Ewha-18278 2.5, 5, 10 and 20 mg/kg; 28 days. The method, then:
(§2) The study was reviewed and approved by the Institutional Animal Care and Use Committee (IACUC) of Center for Laboratory Animal Sciences, Ewha Industry-University Cooperation Foundation, Ewha Womans University. Experimental methods were carried out in accordance with the approved ethic guidelines in Ewha Industry-University Cooperation Foundation, Ewha Womans University. Beginning 4 weeks after OVX, the female ddY mice received 2.5, 5, 10, or 20 mg/kg of #18–278, 2.5 mg/kg of risedronate, or vehicle once daily for 28 days. The Changes in body weight, bone weight, bone mineral density (BMD), failure load (FL), bone calcium (Ca), inorganic phosphorus (P) contents, histology and histomorphology were monitored. Serum osteocalcin and bone specific alkaline phosphatase (bALP) were monitored in mice receiving Ewha-18278.
R esi dronat e 2. 5mg/kg t reated mi ce […]
D ay after administration (d)
Supplementary Figure S7. Body weight changes in OVX mice. We selected eight mice per group showing more increases of body weights as compared with sham-operated mice and regarded as good OVX animals at four weeks after OVX surgery, consequently, significant increases of body weights were detected in all OVX groups as compared with sham control mice throughout 28 days of […]
mice, in the present study. Values are expressed mean ± S.D. of eight mice. Risedronate sodium was administered at 2.5mg/kg levels. […]

For data set [5], the system named is OVX-induced osteoporotic ddY mice. The data set can be described thus: Femur histopathology-histomorphometry in OVX mice. As to conditions: 2.5 mg/kg oral once daily 28 days. The class given is in vivo. The method, then: Risedronate sodium (2.5 mg/kg) served as a reference compound. […] Histopathology and histomorphometrical analyses including trabecular bone volume (BV/TV), trabecular bone number (Tb.N), trabecular bone length (Tb.Le), trabecular bone thickness (Tb.Th), cortical bone thickness (Ct.Th), OC number (N.Oc), bone mineral density (BMD) and bone strength (failure load, FL) were conducted.
as §2
The left side of femur of each mouse was separated and fixed in 10% neutral buffered formalin and decalcified in a solution comprised of 24.4% formic acid and 0.5N sodium hydroxide for 5 days, with spent solution replaced with fresh solution each day. Each sample was embedded in paraffin, sectioned to a thickness of 3–4 μm and exposed to with Hematoxylin & Eosin (H&E) stain. Histomorphometry was conducted as for bone mass and structure with bone resorption in a uniform area of epiphyseal regions of femur (growth plate regions were excluded). Cortical bone thickness was measured in the mid-shaft region of the femur.

Data set [6] has the same test system. As to the kind of experiment: Tibia histopathology-histomorphometry in OVX mice. As to conditions: 2.5 mg/kg oral once daily 28 days. The data set is classed as in vivo.
Data set [7] shares this test system. The data set can be described thus: Bone strength (failure load, three-point bending test) in OVX mice. The class given is in vivo. As to conditions: oral once daily 28 days; risedronate 2.5 mg/kg.
The test system of the next data set is OVX rats. As to conditions: 2.5 mg/kg/day for 8 weeks; cited from earlier work.

As for `CC(=O)N[C@@H](CS)C(=O)O` [N-acetyl cysteine, reference compound], in [1], the “change in hydrogen peroxide concentration (ROS scavenging)” value is reported as “decrease in hydrogen peroxide concentration”.
For `O=C(c1ccc(OCCN2CCCCC2)cc1)c1c(-c2ccc(O)cc2)sc2cc(O)ccc12` [Raloxifene], the “increase of bone density” value in the data set with bone density is given as 3–4%.
Regarding `O=P(O)(O)C(O)(Cc1cccnc1)P(=O)(O)O` [Risedronate, Risedronate sodium, reference compound], in data set [2], the “Tibia absolute weights, Ash” value is recorded as 0.031 g; the “Tibia absolute weights, Dry” value amounted to 0.050 g; the “Tibia absolute weights, Wet” value came out at 0.071 g; the “Tibia relative weights, Ash” value is reported as 0.085 % of body weight. For the same molecule, in data set [2], the “Tibia relative weights, Dry” value is listed as 0.137 % of body weight and the “Tibia relative weights, Wet” value is on record as 0.196 % of body weight. Moreover, in data set [3], the “Femur absolute weights, Ash” value is on record as 0.037 g; the “Femur absolute weights, Dry” value is 0.066 g; the “Femur absolute weights, Wet” value came out at 0.096 g; the “Femur relative weights, Ash” value is given as 0.102 % of body weight. Besides, in data set [3], the “Femur relative weights, Dry” value is recorded as 0.181 % of body weight and the “Femur relative weights, Wet” value is given as 0.263 % of body weight. Moreover, the “body weights as compared with OVX control mice” value in data set [4] is “no meaningful changes”. In data set [5], the “BV/TV (trabecular bone volume)” value is 38.08 ± 7.20 ^c %; the “Ct.Th (cortical bone thickness)” value is 128.36 ± 15.57 ^a μm; the “N.OC/BS (osteoclast cell number, N/epiphyseal)” value was 19.00 ± 2.93 ^eg numbers; the “Tb.Le (trabecular bone length)” value is 1.04 ± 0.12 ^ac mm. Moreover, in data set [5], the “Tb.N (trabecular bone number, N/epiphyseal)” value was 24.50 ± 4.00 ^eg numbers and the “Tb.Th (trabecular bone thickness)” value was 47.25 ± 4.73 ^ad μm. For the same molecule, in data set [6], the “BV/TV (trabecular bone volume)” value is given as 35.71 ± 5.63 ^c %; the “Ct.Th (cortical bone thickness)” value is reported as 113.81 ± 14.45 ^a μm; the “N.OC/BS (osteoclast cell number, N/epiphyseal)” value is on record as 19.38 ± 3.20 ^ac numbers; the “Tb.Le (trabecular bone length)” value was 0.76 ± 0.12 ^ac mm. Moreover, in data set [6], the “Tb.N (trabecular bone number, N/epiphyseal)” value is 19.25 ± 1.67 ^bc numbers and the “Tb.Th (trabecular bone thickness)” value is reported as 43.52 ± 8.73 ^ac μm. Moreover, the “bone strength (FL) of femur and tibia compared to control OVX” value in data set [7] is recorded as “did not show any favorable effects”. In addition, the “microstructural and biomechanical features of bone” value with OVX rats is “maintains microstructural and biomechanical features of bone”.
